The values that follow come from the supplement of paper PMC11208160.

The series in a line: recombinant barcode read abundance after kanamycin selection (control-corrected) (log10(CPM+1)); higher = more efficient recombination; sequences stand for … in AGTGCAGAGAAAATCGGCCAGTTTTCTCTGCCTGCAGTCCGCATGCCGT…ATTTATGCAGCGGACTGCCTTTCTCCCAAAGTGATAAACCGGACAGTATCATGGACCGGTTTTCCCGGTAATCCGTATTTGCAAGGTTGGTTTCACT; site = the 11-nt target. In outline: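 Recombination efficiency comes from barcode counts at recombinant junctions, converted to counts per million, averaged and corrected against the control. Values appear as log10(CPM+1). They were obtained from a pooled E. coli screen in which each oligo paired a target with an IS621 bridge RNA target-binding loop, and cells were plated in duplicate on chloramphenicol/ampicillin LB agar or on chloramphenicol/ampicillin/kanamycin with 0.1 mM IPTG.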
For “GGGCGGACGTGGGTTCTAACCTGTTGCGGCG [GGGCGGACTCC_LTGcore_CG_RTGcore_CG] (site GGGCGGACTCC) (LTG core: CG, RTG core: CG)”, the “recombinant barcode read abundance (log10)” value worked out at 0.759.

In the case of “GGGCGGACTTGGGTTCTAACCTGTTGCGGCT [GGGCGGACTCC_LTGcore_CT_RTGcore_AG] (site GGGCGGACTCC) (LTG core: CT, RTG core: AG)”, the “recombinant barcode read abundance (log10)” value stood at 0.292.

Regarding “GGGCGGACTTGGGTTCTAACCTGTTGCGGTG [GGGCGGACTCC_LTGcore_CT_RTGcore_CA] (site GGGCGGACTCC) (LTG core: CT, RTG core: CA)”, the “recombinant barcode read abundance (log10)” value was 0.17.

As for “GGGCGGAGCTGGGTTCTAACCTGTTGCGGGC [GGGCGGACTCC_LTGcore_GC_RTGcore_GC] (site GGGCGGACTCC) (LTG core: GC, RTG core: GC)”, the “recombinant barcode read abundance (log10)” value came to 0.417.

As for “GGGCGGAGTTGGGTTCTAACCTGTTGCGGAC [GGGCGGACTCC_LTGcore_GT_RTGcore_GT] (site GGGCGGACTCC) (LTG core: GT, RTG core: GT)”, the “recombinant barcode read abundance (log10)” value was found to be 0.199.

In the case of “GGGCGGATGTGGGTTCTAACCTGTTGCGGAG [GGGCGGACTCC_LTGcore_TG_RTGcore_CT] (site GGGCGGACTCC) (LTG core: TG, RTG core: CT)”, the “recombinant barcode read abundance (log10)” value was 0.251.

For “GGGCGTGAATGGGTTCTAACCTGTTGCCTTT [GGGCGTGCTAG_LTGcore_AA_RTGcore_AA] (site GGGCGTGCTAG) (LTG core: AA, RTG core: AA)”, the “recombinant barcode read abundance (log10)” value was 0.148.

With “GGGCGTGCATGGGTTCTAACCTGTTGCCTTG [GGGCGTGCTAG_LTGcore_CA_RTGcore_CA] (site GGGCGTGCTAG) (LTG core: CA, RTG core: CA)”, the “recombinant barcode read abundance (log10)” value is 0.0757.

As to “GGGCGTGCTTGGGTTCTAACCTGTTGCCTCT [GGGCGTGCTAG_LTGcore_CT_RTGcore_AG] (site GGGCGTGCTAG) (LTG core: CT, RTG core: AG)”, the “recombinant barcode read abundance (log10)” value is 0.831.

Take “GGGCGTGGGTGGGTTCTAACCTGTTGCCTCC [GGGCGTGCTAG_LTGcore_GG_RTGcore_GG] (site GGGCGTGCTAG) (LTG core: GG, RTG core: GG)”: the “recombinant barcode read abundance (log10)” value was 0.116.

With “GGGCGTGGTTGGGTTCTAACCTGTTGCCTAC [GGGCGTGCTAG_LTGcore_GT_RTGcore_GT] (site GGGCGTGCTAG) (LTG core: GT, RTG core: GT)”, the “recombinant barcode read abundance (log10)” value was 0.593.

As to “GGGCGTGTGTGGGTTCTAACCTGTTGCCTAG [GGGCGTGCTAG_LTGcore_TG_RTGcore_CT] (site GGGCGTGCTAG) (LTG core: TG, RTG core: CT)”, the “recombinant barcode read abundance (log10)” value was 0.228.

Consider “GGTGCCCAGTGGGTTCTAACCTGTTGCCGAG [GGTGCCCCTCG_LTGcore_AG_RTGcore_CT] (site GGTGCCCCTCG) (LTG core: AG, RTG core: CT)”, for which the “recombinant barcode read abundance (log10)” value came to 0.202.

Take “GGTGCCCCATGGGTTCTAACCTGTTGCCGAG [GGTGCCCCTCG_LTGcore_CA_RTGcore_CT] (site GGTGCCCCTCG) (LTG core: CA, RTG core: CT)”: the “recombinant barcode read abundance (log10)” value turned out to be 0.158.

For the sequence “GGTGCCCCATGGGTTCTAACCTGTTGCCGTG [GGTGCCCCTCG_LTGcore_CA_RTGcore_CA] (site GGTGCCCCTCG) (LTG core: CA, RTG core: CA)”, the “recombinant barcode read abundance (log10)” value turned out to be 0.0735.

Consider “GGTGCCCCTTGGGTTCTAACCTGTTGCCGTA [GGTGCCCCTCG_LTGcore_CT_RTGcore_TA] (site GGTGCCCCTCG) (LTG core: CT, RTG core: TA)”, for which the “recombinant barcode read abundance (log10)” value was 0.258.

Consider “GGTGCCCGATGGGTTCTAACCTGTTGCCGAG [GGTGCCCCTCG_LTGcore_GA_RTGcore_CT] (site GGTGCCCCTCG) (LTG core: GA, RTG core: CT)”, for which the “recombinant barcode read abundance (log10)” value turned out to be 0.0132.

Consider “GGTGCCCGCTGGGTTCTAACCTGTTGCCGAG [GGTGCCCCTCG_LTGcore_GC_RTGcore_CT] (site GGTGCCCCTCG) (LTG core: GC, RTG core: CT)”, for which the “recombinant barcode read abundance (log10)” value was found to be 0.0494.

Regarding “GGTGCCCGGTGGGTTCTAACCTGTTGCCGAG [GGTGCCCCTCG_LTGcore_GG_RTGcore_CT] (site GGTGCCCCTCG) (LTG core: GG, RTG core: CT)”, the “recombinant barcode read abundance (log10)” value was determined as 0.0774.

In the case of “GGTGCCCGTTGGGTTCTAACCTGTTGCCGAC [GGTGCCCCTCG_LTGcore_GT_RTGcore_GT] (site GGTGCCCCTCG) (LTG core: GT, RTG core: GT)”, the “recombinant barcode read abundance (log10)” value was found to be 0.151.

For the sequence “GGTGCCCTATGGGTTCTAACCTGTTGCCGAG [GGTGCCCCTCG_LTGcore_TA_RTGcore_CT] (site GGTGCCCCTCG) (LTG core: TA, RTG core: CT)”, the “recombinant barcode read abundance (log10)” value was 0.122.

Turning to “GGTGCCCTCTGGGTTCTAACCTGTTGCCGGA [GGTGCCCCTCG_LTGcore_TC_RTGcore_TC] (site GGTGCCCCTCG) (LTG core: TC, RTG core: TC)”, the “recombinant barcode read abundance (log10)” value worked out at 0.0162.

For “GGTGCCCTGTGGGTTCTAACCTGTTGCCGCA [GGTGCCCCTCG_LTGcore_TG_RTGcore_TG] (site GGTGCCCCTCG) (LTG core: TG, RTG core: TG)”, the “recombinant barcode read abundance (log10)” value is 0.15.

In the case of “GGTGCCCTTTGGGTTCTAACCTGTTGCCGAG [GGTGCCCCTCG_LTGcore_TT_RTGcore_CT] (site GGTGCCCCTCG) (LTG core: TT, RTG core: CT)”, the “recombinant barcode read abundance (log10)” value is 0.0486.

As for “GTCGCCCATTGGGTTCTAACCTGTTGCTAAG [GTCGCCCCTTA_LTGcore_AT_RTGcore_CT] (site GTCGCCCCTTA) (LTG core: AT, RTG core: CT)”, the “recombinant barcode read abundance (log10)” value stood at 0.926.

For “GTCGCCCCCTGGGTTCTAACCTGTTGCTAGG [GTCGCCCCTTA_LTGcore_CC_RTGcore_CC] (site GTCGCCCCTTA) (LTG core: CC, RTG core: CC)”, the “recombinant barcode read abundance (log10)” value was 0.416.

Turning to “GTCGCCCCTTGGGTTCTAACCTGTTGCTAAA [GTCGCCCCTTA_LTGcore_CT_RTGcore_TT] (site GTCGCCCCTTA) (LTG core: CT, RTG core: TT)”, the “recombinant barcode read abundance (log10)” value turned out to be 0.194.

With “GTCGCCCCTTGGGTTCTAACCTGTTGCTACA [GTCGCCCCTTA_LTGcore_CT_RTGcore_TG] (site GTCGCCCCTTA) (LTG core: CT, RTG core: TG)”, the “recombinant barcode read abundance (log10)” value was determined as 0.151.

With “GTCGCCCCTTGGGTTCTAACCTGTTGCTACC [GTCGCCCCTTA_LTGcore_CT_RTGcore_GG] (site GTCGCCCCTTA) (LTG core: CT, RTG core: GG)”, the “recombinant barcode read abundance (log10)” value is 0.487.

“GTCGCCCCTTGGGTTCTAACCTGTTGCTACT [GTCGCCCCTTA_LTGcore_CT_RTGcore_AG] (site GTCGCCCCTTA) (LTG core: CT, RTG core: AG)”: the “recombinant barcode read abundance (log10)” value turned out to be 0.19.

Consider “GTCGCCCCTTGGGTTCTAACCTGTTGCTAGG [GTCGCCCCTTA_LTGcore_CT_RTGcore_CC] (site GTCGCCCCTTA) (LTG core: CT, RTG core: CC)”, for which the “recombinant barcode read abundance (log10)” value is 0.238.

Consider “GTCGCCCGCTGGGTTCTAACCTGTTGCTAAG [GTCGCCCCTTA_LTGcore_GC_RTGcore_CT] (site GTCGCCCCTTA) (LTG core: GC, RTG core: CT)”, for which the “recombinant barcode read abundance (log10)” value came out at 0.224.

On to “GTCGCCCTGTGGGTTCTAACCTGTTGCTACA [GTCGCCCCTTA_LTGcore_TG_RTGcore_TG] (site GTCGCCCCTTA) (LTG core: TG, RTG core: TG)”, for which the “recombinant barcode read abundance (log10)” value was found to be 0.51.

Regarding “TAAGAATAGTGGGTTCTAACCTGTTGCCTAG [TAAGAATCTAG_LTGcore_AG_RTGcore_CT] (site TAAGAATCTAG) (LTG core: AG, RTG core: CT)”, the “recombinant barcode read abundance (log10)” value was found to be 0.079.

For the sequence “TAAGAATAGTGGGTTCTAACCTGTTGCCTCT [TAAGAATCTAG_LTGcore_AG_RTGcore_AG] (site TAAGAATCTAG) (LTG core: AG, RTG core: AG)”, the “recombinant barcode read abundance (log10)” value came out at 0.0922.

With “TAAGAATCTTGGGTTCTAACCTGTTGCCTAA [TAAGAATCTAG_LTGcore_CT_RTGcore_TT] (site TAAGAATCTAG) (LTG core: CT, RTG core: TT)”, the “recombinant barcode read abundance (log10)” value is 0.175.

On to “TAAGAATCTTGGGTTCTAACCTGTTGCCTGC [TAAGAATCTAG_LTGcore_CT_RTGcore_GC] (site TAAGAATCTAG) (LTG core: CT, RTG core: GC)”, for which the “recombinant barcode read abundance (log10)” value was 0.359.

Take “TAAGAATGCTGGGTTCTAACCTGTTGCCTAG [TAAGAATCTAG_LTGcore_GC_RTGcore_CT] (site TAAGAATCTAG) (LTG core: GC, RTG core: CT)”: the “recombinant barcode read abundance (log10)” value amounted to 0.216.

As for “TAAGAATGGTGGGTTCTAACCTGTTGCCTAG [TAAGAATCTAG_LTGcore_GG_RTGcore_CT] (site TAAGAATCTAG) (LTG core: GG, RTG core: CT)”, the “recombinant barcode read abundance (log10)” value is 0.0162.

“TAAGAATTATGGGTTCTAACCTGTTGCCTAG [TAAGAATCTAG_LTGcore_TA_RTGcore_CT] (site TAAGAATCTAG) (LTG core: TA, RTG core: CT)”: the “recombinant barcode read abundance (log10)” value was 0.

As to “TAAGAATTCTGGGTTCTAACCTGTTGCCTAG [TAAGAATCTAG_LTGcore_TC_RTGcore_CT] (site TAAGAATCTAG) (LTG core: TC, RTG core: CT)”, the “recombinant barcode read abundance (log10)” value turned out to be 0.0977.

For the sequence “TAAGAATTTTGGGTTCTAACCTGTTGCCTAG [TAAGAATCTAG_LTGcore_TT_RTGcore_CT] (site TAAGAATCTAG) (LTG core: TT, RTG core: CT)”, the “recombinant barcode read abundance (log10)” value is 0.0485.

Consider “TAGAGGGAATGGGTTCTAACCTGTTGCGGAG [TAGAGGGCTCC_LTGcore_AA_RTGcore_CT] (site TAGAGGGCTCC) (LTG core: AA, RTG core: CT)”, for which the “recombinant barcode read abundance (log10)” value was 0.247.
